System: HUVEC
Assay: Antiproliferation activity against HUVEC cells after 48 hrs by CCK-8 assay
Assay type: functional, cell-based
Conditions: Homo sapiens

Structure (SMILES)	IC50 [µM]
CCNC(=O)n1ncc2c1[C@](C)(C(=O)O)[C@@H]1CC[C@]3(C)[C@H](C(=O)C=C4[C@@H]5[C@@H](C)[C@H](C)CC[C@]5(C)CC[C@]43C)[C@@]1(C)C2	5.8
COC(=O)[C@]1(C)[C@@H]2CC[C@]3(C)[C@H](C(=O)C=C4[C@@H]5[C@@H](C)[C@H](C)CC[C@]5(C)CC[C@]43C)[C@@]2(C)CC[C@H]1OC(C)=O	4.6
CO/N=C1\CC[C@@]2(C)[C@@H](CC[C@]3(C)[C@@H]2C(=O)C=C2[C@@H]4[C@@H](C)[C@H](C)CC[C@]4(C)CC[C@]23C)[C@@]1(C)C(=O)O	13.1
CC(=O)O[C@@H]1CC[C@@]2(C)[C@@H](CC[C@]3(C)[C@@H]2C(=O)C=C2[C@@H]4[C@@H](C)[C@H](C)CC[C@]4(C)CC[C@]23C)[C@@]1(C)C(N)=O	5.02
C[C@H]1[C@H](C)CC[C@]2(C)CC[C@]3(C)C(=CC(=O)[C@@H]4[C@@]5(C)Cc6c([nH]c7ccccc67)[C@](C)(C(=O)O)[C@@H]5CC[C@]43C)[C@H]12	8.22
CC(=O)O[C@@H]1CC[C@@]2(C)[C@@H](CC[C@]3(C)[C@@H]2C(=O)C=C2[C@@H]4[C@@H](C)[C@H](C)CC[C@]4(C)CC[C@]23C)[C@@]1(C)C(=O)N1CCOCC1	> 100
C[C@H]1[C@H](C)CC[C@]2(C)CC[C@]3(C)C(=CC(=O)[C@@H]4[C@@]5(C)Cc6cn[nH]c6[C@](C)(C(=O)O)[C@@H]5CC[C@]43C)[C@H]12	2.13
CC(=O)O[C@@H]1CC[C@@]2(C)[C@@H](CC[C@]3(C)[C@@H]2C(=O)C=C2[C@@H]4[C@@H](C)[C@H](C)CC[C@]4(C)CC[C@]23C)[C@@]1(C)C(=O)N(C)CCN(C)C	5.05
CC(=O)O[C@@H]1CC[C@@]2(C)[C@@H](CC[C@]3(C)[C@@H]2C(=O)C=C2[C@@H]4[C@@H](C)[C@H](C)CC[C@]4(C)CC[C@]23C)[C@@]1(C)C(=O)N1CCN(C)CC1	70.3
CC(=O)O[C@@H]1CC[C@@]2(C)[C@@H](CC[C@]3(C)[C@@H]2C(=O)C=C2[C@@H]4[C@@H](C)[C@H](C)CC[C@]4(C)CC[C@]23C)[C@@]1(C)C(=O)NC1CCNCC1	8.23
C[C@H]1[C@H](C)CC[C@]2(C)CC[C@]3(C)C(=CC(=O)[C@@H]4[C@@]5(C)CC[C@H](N)[C@](C)(C(=O)O)[C@@H]5CC[C@]43C)[C@H]12	5.32
CC(=O)O[C@@H]1CC[C@@]2(C)[C@@H](CC[C@]3(C)[C@@H]2CC=C2[C@@H]4[C@@H](C)[C@H](C)CC[C@]4(C)CC[C@]23C)[C@@]1(C)C(=O)O	> 100
CC(=O)O[C@@H]1CC[C@@]2(C)[C@@H](CC[C@]3(C)[C@@H]2C(=O)C=C2[C@@H]4[C@@H](C)[C@H](C)CC[C@]4(C)CC[C@]23C)[C@@]1(C)C(=O)NN	> 100
CCOC(=O)C(=O)O[C@@H]1CC[C@@]2(C)[C@@H](CC[C@]3(C)[C@@H]2C(=O)C=C2[C@@H]4[C@@H](C)[C@H](C)CC[C@]4(C)CC[C@]23C)[C@@]1(C)C(=O)O	> 100
C[C@H]1[C@H](C)CC[C@]2(C)CC[C@]3(C)C(=CC(=O)[C@@H]4[C@@]5(C)CC/C(=N\O)[C@](C)(C(=O)O)[C@@H]5CC[C@]43C)[C@H]12	10.8
CC(=O)N[C@H]1CC[C@@]2(C)[C@@H](CC[C@]3(C)[C@@H]2C(=O)C=C2[C@@H]4[C@@H](C)[C@H](C)CC[C@]4(C)CC[C@]23C)[C@@]1(C)C(=O)O	47.5

Structure (SMILES)	IC50 [µM]
CC(=O)O[C@@H]1CC[C@@]2(C)[C@@H](CC[C@]3(C)[C@@H]2C(=O)C=C2[C@@H]4[C@@H](C)[C@H](C)CC[C@]4(C)CC[C@]23C)[C@@]1(C)C(=O)N1CCNCC1	2.36
CC(=O)O[C@H]1CC[C@@]2(C)[C@@H](CC[C@]3(C)[C@@H]2C(=O)C=C2[C@@H]4[C@@H](C)[C@H](C)CC[C@]4(C)CC[C@]23C)[C@@]1(C)C(=O)O	35.8
C[C@H]1[C@H](C)CC[C@]2(C)CC[C@]3(C)C(=CC(=O)[C@@H]4[C@@]5(C)CC[C@H](O)[C@](C)(C(=O)O)[C@@H]5CC[C@]43C)[C@H]12	27.2
CCNC(=O)[C@]1(C)[C@@H]2CC[C@]3(C)[C@H](C(=O)C=C4[C@@H]5[C@@H](C)[C@H](C)CC[C@]5(C)CC[C@]43C)[C@@]2(C)CC[C@H]1OC(C)=O	> 100
CC(=O)O[C@@H]1CC[C@@]2(C)[C@@H](CC[C@]3(C)[C@@H]2C(=O)C=C2[C@@H]4[C@@H](C)[C@H](C)CC[C@]4(C)CC[C@]23C)[C@@]1(C)C(=O)N1CCCCC1	35.8
C[C@H]1[C@H](C)CC[C@]2(C)CC[C@]3(C)C(=CC(=O)[C@@H]4[C@@]5(C)Cc6cnn(C(=O)Nc7ccccc7)c6[C@](C)(C(=O)O)[C@@H]5CC[C@]43C)[C@H]12	9.11
C[C@H]1[C@H](C)CC[C@]2(C)CC[C@]3(C)C(=CC(=O)[C@@H]4[C@@]5(C)Cc6cnn(C(=O)c7ccccc7)c6[C@](C)(C(=O)O)[C@@H]5CC[C@]43C)[C@H]12	6.31
C[C@H]1[C@H](C)CC[C@]2(C)CC[C@]3(C)C(=CC(=O)[C@@H]4[C@@]5(C)Cc6cnoc6[C@](C)(C(=O)O)[C@@H]5CC[C@]43C)[C@H]12	9.92
CC(C)COC(=O)n1ncc2c1[C@](C)(C(=O)O)[C@@H]1CC[C@]3(C)[C@H](C(=O)C=C4[C@@H]5[C@@H](C)[C@H](C)CC[C@]5(C)CC[C@]43C)[C@@]1(C)C2	3.12
CC(=O)O[C@@H]1CC[C@@]2(C)[C@@H](CC[C@]3(C)[C@@H]2C(=O)C=C2[C@@H]4[C@@H](C)[C@H](C)CC[C@]4(C)CC[C@]23C)[C@@]1(C)C(=O)NCCN	3.76
CC(=O)O[C@@H]1CC[C@]2(C)[C@H]3C(=O)C=C4[C@@H]5[C@@H](C)[C@H](C)CC[C@]5(C)CC[C@@]4(C)[C@]3(C)CC[C@H]2[C@@]1(C)C#N	> 100
CC(=O)O[C@@H]1CC[C@@]2(C)[C@@H](CC[C@]3(C)[C@@H]2C(=O)C=C2[C@@H]4[C@@H](C)[C@H](C)CC[C@]4(C)CC[C@]23C)[C@@]1(C)C(=O)N1CCCNCC1	2.79
CC(=O)O[C@@H]1CC[C@@]2(C)[C@@H](CC[C@]3(C)[C@@H]2C(=O)C=C2[C@@H]4[C@@H](C)[C@H](C)CC[C@]4(C)CC[C@]23C)[C@@]1(C)C(=O)O [AKBA]	7.45
CC(=O)n1ncc2c1[C@](C)(C(=O)O)[C@@H]1CC[C@]3(C)[C@H](C(=O)C=C4[C@@H]5[C@@H](C)[C@H](C)CC[C@]5(C)CC[C@]43C)[C@@]1(C)C2	9.27
C[C@H]1[C@H](C)CC[C@]2(C)CC[C@]3(C)C(=CC(=O)[C@@H]4[C@@]5(C)CC[C@@H](OC(=O)C(F)(F)F)[C@](C)(C(=O)O)[C@@H]5CC[C@]43C)[C@H]12	5.13
CC(=O)O[C@@H]1CC[C@@]2(C)[C@@H](CC[C@]3(C)[C@@H]2C(=O)C=C2[C@@H]4[C@@H](C)[C@H](C)CC[C@]4(C)CC[C@]23C)[C@@]1(C)C(=O)Nc1ccncc1	> 100

System: HUVEC
Assay: Induction of apoptosis in HUVEC cells
Assay type: functional, cell-based
Conditions: Homo sapiens

Structure (SMILES)	Activity
C[C@H]1[C@H](C)CC[C@]2(C)CC[C@]3(C)C(=CC(=O)[C@@H]4[C@@]5(C)Cc6cn[nH]c6[C@](C)(C(=O)O)[C@@H]5CC[C@]43C)[C@H]12	Dose-dependent effect
CC(=O)O[C@@H]1CC[C@@]2(C)[C@@H](CC[C@]3(C)[C@@H]2C(=O)C=C2[C@@H]4[C@@H](C)[C@H](C)CC[C@]4(C)CC[C@]23C)[C@@]1(C)C(=O)N1CCNCC1	Dose-dependent effect

— ChEMBL document CHEMBL3399926, “Synthesis and structure-activity relationships of boswellic acid derivatives as potent VEGFR-2 inhibitors” (Bioorg Med Chem, 2015)
